Laboratory results published in ChEMBL document CHEMBL1131402, “Potent piperazine hydroxyethylamine HIV protease inhibitors containing novel P3 ligands” (Bioorg Med Chem Lett, 1998).

Experiments:
[1] = system: MT4; test: Cytotoxicity against MT-4 cells was determined by using cytopathic effect assay; format: functional, Homo sapiens
[2] = molecular target: Human immunodeficiency virus type 1 protease (Human immunodeficiency virus 1) (UniProt Q72874); test: Inhibition of HIV protease at 0.5 nM
[3] = system: Human immunodeficiency virus 1; test: Anti-HIV activity was determined in MT-4 cells in the presence of 0% human serum using cytopathic effect assay; format: functional, organism-based; settings: Human immunodeficiency virus 1, MT4
[4] = system: Human immunodeficiency virus 1; test: Anti-HIV activity was determined in MT-4 cells in the presence of 50% human serum using cytopathic effect assay; format: functional, organism-based; settings: Human immunodeficiency virus 1, MT4, Serum
[5] = molecular target: Cytochrome P450 3A4 (Homo sapiens, UniProt P08684); test: […] inhibition of human liver microsomal Cytochrome P450 3A4; format: ADME
Chain of Cytochrome P450 3A4 (P08684 whole entry): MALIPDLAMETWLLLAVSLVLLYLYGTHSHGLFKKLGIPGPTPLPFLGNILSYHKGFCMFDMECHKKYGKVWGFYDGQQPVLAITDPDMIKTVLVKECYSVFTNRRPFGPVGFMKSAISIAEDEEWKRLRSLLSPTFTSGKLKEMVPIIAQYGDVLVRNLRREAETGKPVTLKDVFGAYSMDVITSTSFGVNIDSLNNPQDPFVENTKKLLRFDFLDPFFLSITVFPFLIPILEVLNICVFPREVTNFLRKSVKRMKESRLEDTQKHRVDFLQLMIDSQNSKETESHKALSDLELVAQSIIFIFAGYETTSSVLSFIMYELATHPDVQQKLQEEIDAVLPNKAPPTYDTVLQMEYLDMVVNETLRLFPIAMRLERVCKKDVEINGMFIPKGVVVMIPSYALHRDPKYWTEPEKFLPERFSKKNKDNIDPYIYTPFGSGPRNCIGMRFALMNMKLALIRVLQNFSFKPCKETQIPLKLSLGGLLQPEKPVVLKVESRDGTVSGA

[6] = molecular target: Human immunodeficiency virus type 1 protease (Human immunodeficiency virus 1) (UniProt Q72874); test: Compound was tested for the inhibition of HIV protease at 120 nM
[7] = system: Human immunodeficiency virus 1; test: Antiviral activity was assessed against K20K/R, M36M/I, 154V/I, L63L/P, V82/A viral strains isolated from patient-131 pretreated with ritonavir(20 fold) at 28th week; format: functional, organism-based
[8] = system: Human immunodeficiency virus 1; test: Antiviral activity was assessed against M36M/I, V82F viral strains isolated from patient-313 pretreated with ritonavir(9 fold) at 57th day; format: functional, organism-based
[9] = system: Human immunodeficiency virus 1; test: Antiviral activity was assessed against K20K/R, 36M/I, 154V, A71A/V, V82T viral strains isolated from patient-129 pretreated with ritonavir(33 fold) at 16th week; format: functional, organism-based
[10] = system: Human immunodeficiency virus 1; test: Antiviral activity was assessed against I54I/V, A71V, V82A, L90L/M viral strains isolated from patient-235 pretreated with ritonavir (4 fold) at 36th week; format: functional, organism-based
[11] = system: Human immunodeficiency virus 1; test: Antiviral activity was assessed against M36I, I54V, A71V, V82T viral strains isolated from patient-129 pretreated with ritonavir(14 fold) at 8th week; format: functional, organism-based
[12] = system: Human immunodeficiency virus 1; test: Antiviral activity was assessed against M36M/I, I54I/V, V82F/A/S/T viral strains isolated from patient-313 pretreated with ritonavir(14 fold) at 85th day; format: functional, organism-based
[13] = molecular target: Human immunodeficiency virus type 1 protease (Human immunodeficiency virus 1) (UniProt Q72874); test: Compound was tested for the inhibition of HIV protease at 27 nM
[14] = system: MT4; test: Cytotoxicity against MT-4 cells was determined by using cytopathic effect assay; NA means not active; format: functional, cell-based, Homo sapiens
[15] = system: MT4; test: Anti-HIV activity was determined in MT-4 cells in the presence of 50% human serum using cytopathic effect assay; NA means not active; format: functional, cell-based
[16] = system: MT4; test: Anti-HIV activity was determined in MT-4 cells in the presence of 0% human serum using cytopathic effect assay; Not active; format: functional, cell-based
[17] = molecular target: Human immunodeficiency virus type 1 protease (Human immunodeficiency virus 1) (UniProt Q72874); test: Compound was tested for the inhibition of HIV protease at 97 nM
[18] = system: Human immunodeficiency virus 1; test: Antiviral activity was assessed against M36M/I, I54I/V, V82F/A/S/T viral strains isolated from patient-313 pretreated with ritonavir(3 fold) at 85th day; format: functional, organism-based
[19] = system: Human immunodeficiency virus 1; test: Antiviral activity was assessed against M36I, I54V, A71V, V82T viral strains isolated from patient-129 pretreated with ritonavir(2 fold) at 8th week; format: functional, organism-based
[20] = system: Human immunodeficiency virus 1; test: Antiviral activity was assessed against I54I/V, A71V, V82A, L90L/M viral strains isolated from patient-235 pretreated with ritonavir (2 fold) at 36th week; format: functional, organism-based
[21] = system: Human immunodeficiency virus 1; test: Antiviral activity was assessed against K20K/R, 36M/I, 154V, A71A/V, V82T viral strains isolated from patient-129 pretreated with ritonavir(7 fold) at 16th week; format: functional, organism-based
[22] = system: Human immunodeficiency virus 1; test: Antiviral activity was assessed against M36M/I, V82F viral strains isolated from patient-313 pretreated with ritonavir(3 fold) at 57th day; format: functional, organism-based
[23] = system: Human immunodeficiency virus 1; test: Antiviral activity was assessed against K20K/R, M36M/I, 154V/I, L63L/P, V82/A viral strains isolated from patient-131 pretreated with ritonavir(7 fold) at 28th week; format: functional, organism-based

Row | inhibition [2] [%] | EC50 [3] [nM] | EC50 [4] [nM] | Compound | CCIC50 [1] [µM] | other results
1 | 60 | 13 | 84 | CC(C)c1nc(CN(C)C(=O)N[C@H](C(=O)N[C@@H](Cc2ccccc2)[C@H](O)CN2CCN(Cc3cncs3)C[C@H]2C(=O)NC(C)(C)C)C(C)C)cs1 | >100 | –
2 | 49 | 10 | 42 | COc1ccc(CN2CCN(C[C@@H](O)[C@H](Cc3ccccc3)NC(=O)[C@@H](NC(=O)OCc3csc(C)n3)C(C)C)[C@H](C(=O)NC(C)(C)C)C2)cc1OC | 57 | IC50 [5]: 120000 nM
3 | – | 3000 | 7000 | CC(C)[C@@H](NC(=O)N(C)Cc1cncs1)C(=O)N[C@@H](Cc1ccccc1)[C@H](O)CN1CCN(Cc2ccccc2)C[C@H]1C(=O)NC(C)(C)C | 56 | inhibition [6]: 50%
4 | 45 | 11 | 74 | Cc1nc(COC(=O)N[C@H](C(=O)N[C@@H](Cc2ccccc2)[C@H](O)CN2CCN(Cc3ccc4c(c3)OCO4)C[C@H]2C(=O)NC(C)(C)C)C(C)C)cs1 | 56 | –
5 | 37 | 16 | 132 | CCc1ncc(COC(=O)N[C@H](C(=O)N[C@@H](Cc2ccccc2)[C@H](O)CN2CCN(Cc3ccc(OC)c(OC)c3)C[C@H]2C(=O)NC(C)(C)C)C(C)C)s1 | 50 | IC50 [5]: 35000 nM
6 | 64 | 21 | 174 | CC(C)c1nc(COC(=O)N[C@H](C(=O)N[C@@H](Cc2ccccc2)[C@H](O)CN2CCN(Cc3ccc(F)cc3)C[C@H]2C(=O)NC(C)(C)C)C(C)C)cs1 | 15 | –
7 | 53 | 40 | 142 | CC(C)c1nc(COC(=O)N[C@H](C(=O)N[C@@H](Cc2ccccc2)[C@H](O)CN2CCN(Cc3cccc(O)c3)C[C@H]2C(=O)NC(C)(C)C)C(C)C)cs1 | 17 | –
8 | 51 | 17 | 86 | COc1ccc(CN2CCN(C[C@@H](O)[C@H](Cc3ccccc3)NC(=O)[C@@H](NC(=O)OCc3cnc(C(C)C)s3)C(C)C)[C@H](C(=O)NC(C)(C)C)C2)cc1OC | 21 | –
9 | – | 6000 | 26000 | CC(C)c1nc(COC(=O)N[C@@H](C(=O)N[C@@H](Cc2ccccc2)[C@H](O)CN2CCN(Cc3cncs3)C[C@H]2C(=O)NC(C)(C)C)C(C)C)cs1 | 18 | inhibition [13]: 50%
10 | 63 | 41 | 242 | COc1cc(CN2CCN(C[C@@H](O)[C@H](Cc3ccccc3)NC(=O)[C@@H](NC(=O)N(C)Cc3csc(C(C)C)n3)C(C)C)[C@H](C(=O)NC(C)(C)C)C2)ccc1O | 20 | –
11 | 66 | 48 | 306 | CC(C)c1nc(CN(C)C(=O)N[C@H](C(=O)N[C@@H](Cc2ccccc2)[C@H](O)CN2CCN(Cc3ccccc3)C[C@H]2C(=O)NC(C)(C)C)C(C)C)cs1 | 56 | –
12 | 50 | 259 | 211 | CC(C)[C@H](NC(=O)N(C)Cc1cncs1)C(=O)N[C@@H](Cc1ccccc1)[C@H](O)CN1CCN(Cc2cncs2)C[C@H]1C(=O)NC(C)(C)C | >100 | –
13 | 61 | 22 | 80 | CC(C)c1nc(COC(=O)N[C@H](C(=O)N[C@@H](Cc2ccccc2)[C@H](O)CN2CCN(Cc3ccccc3)C[C@H]2C(=O)NC(C)(C)C)C(C)C)cs1 | 45 | –

The remaining lines, values behind:

Row | Compound | inhibition [2] [%] | EC50 [3] [nM] | EC50 [4] [nM] | CCIC50 [1] [µM] | other results
14 | COc1ccc(CN2CCN(C[C@@H](O)[C@H](Cc3ccccc3)NC(=O)[C@@H](NC(=O)OCc3cnc(C)s3)C(C)C)[C@H](C(=O)NC(C)(C)C)C2)cc1OC | 44 | 11 | 59 | 53 | –
15 | CC(C)c1nc(COC(=O)N[C@H](C(=O)N[C@@H](Cc2ccccc2)[C@H](O)CN2CCN(Cc3nc4ccccc4[nH]3)C[C@H]2C(=O)NC(C)(C)C)C(C)C)cs1 | 65 | 46 | 1060 | 18 | –
16 | CC(C)c1nc(COC(=O)N[C@H](C(=O)N[C@@H](Cc2ccccc2)[C@H](O)CN2CCN(Cc3ccncc3)C[C@H]2C(=O)NC(C)(C)C)C(C)C)cs1 | 73 | 17 | 76 | 56 | –
17 | CC(C)c1nc(COC(=O)N[C@H](C(=O)N[C@@H](Cc2ccccc2)[C@H](O)CN2CCN(Cc3cccc4c3COC4)C[C@H]2C(=O)NC(C)(C)C)C(C)C)cs1 | 69 | 5 | 42 | 18 | IC50 [5]: 12000 nM
18 | COc1ccc(CN2CCN(C[C@@H](O)[C@H](Cc3ccccc3)NC(=O)[C@@H](NC(=O)OCc3csc(C(C)C)n3)C(C)C)[C@H](C(=O)NC(C)(C)C)C2)cc1OC | 62 | 17 | 46 | 18 | –
19 | CC(C)[C@H](NC(=O)OCc1cncs1)C(=O)N[C@@H](Cc1ccccc1)[C@H](O)CN1CCN(Cc2cncs2)C[C@H]1C(=O)NC(C)(C)C | 45 | 57 | 75 | >100 | –
20 | CC(C)[C@H](NC(=O)OCc1cncs1)C(=O)N[C@@H](Cc1ccccc1)[C@H](O)CN1CCN(Cc2ccccc2)C[C@H]1C(=O)NC(C)(C)C | 40 | 17 | 104 | 53 | –
21 | CC(C)c1nc(CN(C)C(=O)N[C@H](C(=O)N[C@@H](Cc2ccccc2)C[C@H](O)[C@H](Cc2ccccc2)NC(=O)OCc2cncs2)C(C)C)cs1 [RITONAVIR] | – | 70 | 810 | 56 | EC50 [7]: 365 nM; EC50 [8]: 340 nM; EC50 [9]: 368 nM; EC50 [10]: 87 nM; EC50 [11]: 149 nM; EC50 [12]: 575 nM
22 | CC(C)c1nc(COC(=O)N[C@H](C(=O)N[C@@H](Cc2ccccc2)[C@H](O)CN2CCN(Cc3cncs3)C[C@H]2C(=O)NC(C)(C)C)C(C)C)cs1 | 67 | 12 | 67 | 57 | IC50 [5]: 15000 nM
23 | Cc1nc(COC(=O)N[C@H](C(=O)N[C@@H](Cc2ccccc2)[C@H](O)CN2CCN(Cc3ccc(F)cc3)C[C@H]2C(=O)NC(C)(C)C)C(C)C)cs1 | 50 | 11 | 71 | 39 | –
24 | CC(C)c1nc(COC(=O)N[C@H](C(=O)N[C@@H](Cc2ccccc2)[C@H](O)CN2CCN(Cc3cccnc3)C[C@H]2C(=O)NC(C)(C)C)C(C)C)cs1 | 69 | 12 | 67 | 59 | IC50 [5]: 2300 nM
25 | CC(C)[C@@H](NC(=O)N(C)Cc1cncs1)C(=O)N[C@@H](Cc1ccccc1)[C@H](O)CN1CCN(Cc2cncs2)C[C@H]1C(=O)NC(C)(C)C | – | – | – | – | EC50 [14]: Not Active; EC50 [15]: Not Active; EC50 [16]: Not Active; inhibition [17]: 50%
26 | CC(C)c1nc(COC(=O)N[C@H](C(=O)N[C@@H](Cc2ccccc2)[C@H](O)CN2CCN(Cc3ccc(O)cc3)C[C@H]2C(=O)NC(C)(C)C)C(C)C)cs1 | 54 | 47 | 226 | 19 | –
27 | CC(C)c1nc(COC(=O)N[C@H](C(=O)N[C@@H](Cc2ccccc2)[C@H](O)CN2CCN(Cc3ccc4c(c3)OCO4)C[C@H]2C(=O)NC(C)(C)C)C(C)C)cs1 | 60 | 7 | 40 | 13 | IC50 [5]: 9600 nM; EC50 [18]: 27 nM; EC50 [19]: 10 nM; EC50 [20]: 24 nM; EC50 [21]: 33 nM; EC50 [22]: 24 nM; EC50 [23]: 29 nM
28 | CCc1nc(COC(=O)N[C@H](C(=O)N[C@@H](Cc2ccccc2)[C@H](O)CN2CCN(Cc3ccc(OC)c(OC)c3)C[C@H]2C(=O)NC(C)(C)C)C(C)C)cs1 | 82 | 19 | 42 | 45 | –
